Measurements as given in PMC12271471, “Direct synthesis of mycophenolic acid aryl esters with antioxidant and antiproliferative properties” (Scientific Reports, 2025).

What was measured:
[1] = system: AsPC-1 cells (human pancreatic cancer cells); assay: MTT cytotoxicity assay on AsPC-1 cell line; format: cell-based; conditions: ASPC1, 72 h treatment, n = 3, mean ± SD
Method: Table 2 presents the concentration of the tested compounds, namely: P4, P7, MP9, MPA, MMF, and gemcitabine (GEM; a standard), which inhibited the proliferation of AsPC-1 cells (human pancreatic cancer cells) by 50% (expressed as IC50 values) compared to the control. Cells were treated with compounds for 72 h and then a colorimetric MTT assay was performed. A graphical representation of these values can be seen in ESI Fig. S1.
Biological evaluation — AsPC-1 cell line
AsPC-1 pancreatic cancer cells (purchased from the American Type Culture Collection, ATCC, Manassas, VA, USA) were maintained in RPMI 1640 medium (Sigma-Aldrich, St Louis, MO, USA), supplemented with heat-inactivated 10% fetal bovine serum (FBS; Biowest, Riverside, MO, USA), 100 µg/mL streptomycin, and 100 units/mL penicillin. Cells were incubated in a humidified atmosphere of 5% CO2 at 37°C. All experiments were performed on cells in a logarithmic growth phase.
To investigate the effect of the tested compounds on cell viability, a colorimetric analysis was performed using MTT (3-(4,5-Dimethyl-2-thiazolyl)-2,5-diphenyl-2H-tetrazolium bromide, Sigma-Aldrich, St Louis, MO, USA) based on the reduction of this yellow salt in metabolically active cells to purple formazan crystals. Cells were seeded onto 96-well plates at 2∙10^3 cells/well and after 24 h incubation for cell attachment, cells were treated with various concentrations of tested compounds and gemcitabine (positive control) up to 50 µM. After 72 hours of incubation, 20 µL MTT at a concentration of 4 mg/mL was added to each well for 3-4 hours. The culture medium was then aspirated and formazan crystals were dissolved in DMSO. The absorbance of the solutions was measured at 540 nm using an iMark Microplate Absorbance Reader (Bio-Rad, Hercules, CA, USA). The drug concentrations required to inhibit cell growth by 50% (IC50) compared to untreated control cells were determined from curves plotting survival as a function of dose. Results were obtained from at least three independent […]
Statistical analysis of MTT cytotoxicity assay results was performed using GraphPad Prism 5.0 by two-tailed unpaired Student’s t-test. Differences p < 0.05 between MPA and its derivatives and gemcitabine were considered statistically significant according to the following criteria: * p < 0.05, ** p <

[2] = system: IMPDH (PBMC proliferation); assay: GMP test: PBMC proliferation with or without guanosine source (IMPDH inhibition); format: cell-based, human; conditions: for PBMC proliferation upon GMP addition (reversal of inhibition): with 50 µM GMP
Method: ESI Figure 4. Antiproliferative activity of MPA, MMF, and various esters of MPA in the presence of guanosine source — role of IMPDH inhibiton. VPD450-labeled human PBMCs, in the presence of different concentrations (50; 25; 10; 1, and 0.1 μM) of MPA, MMF, and esters, and stimulated (magnetic beads coated with anti-CD3 and anti-CD28 antibodies) were cultured with or without the addition of 50 μM GMP for 72 h. Cell proliferation was analyzed […]
(1 picture or pasted object on this page, not shown here) […]
inhibited cell viability by more than 50%. Each experiment was conducted in triplicate, and the final […]
VPD450 dye-based in vitro cell proliferation test
PBMCs and T-Jurkat cells were washed twice with warm PBS (37°C), re-suspended in fresh PBS at a final concentration of 10-30∙10^6 cells/ml, and labelled with 1 µl of VPD450 (BD Biosciences) at 37°C for 15 minutes, with vortexing every 5 minutes to ensure uniform staining. Subsequently, cells were washed with PBS, then with the complete medium (X-VIVO20 for PBMCs and RPMI-1640 for T-Jurkat cells), next re-suspended in fresh complete medium and seeded into 96-well plates at a concentration of 1∙10^6 cells per well. PBMCs were additionally stimulated with magnetic beads coated with anti-CD3 and anti-CD28 antibodies (Invitrogen) at a 2:1 cell-to-bead ratio. To the experimental wells, 100 µl of the MPA derivatives were added to achieve final concentrations of 50, 25, 10, 5, 1, 0.1, and 0.01 µM. In parallel, control wells containing stained but unstimulated cells and stained, stimulated cells were prepared at the same concentration. Cell proliferation was analyzed using an LSRFortessa flow cytometer (BD Biosciences) and Kaluza C Flow Cytometry Analysis Software (Beckman Coulter).
The data were expressed as EC50 values for compounds that inhibited more than 50% of cell […]
Enzyme inhibition in the presence of guanosine source (GMP test)
PBMCs were suspended in a 15 mL centrifuge tube at a concentration of 10-30 × 10⁶ cells in 1 mL of PBS, then, 2 μL of 1 mM VPD 450 dye solution was added, incubated for 15 min at 37°C, washed with a 9-fold volume of warm PBS and centrifuged at 400 x g for 5 min. Then, the cells were suspended in 10 mL of X-VIVO medium with 10% FBS and centrifuged again at 400 x g for 5 min. After suspending the cells in the complete medium, the staining level was checked using flow cytometry. The cells thus obtained were stimulated with anti-CD3/anti-CD28 antibodies as described previously (see VPD450 dye-based in vitro cell proliferation test). To perform the GMP test, a proper amount of GMP was added to each well to reach its final concentration of 50 μM, and then incubated for 72 hours. Proliferative activity was tested in the presence of various concentrations of compounds (50; 25; 10; 1 and 0.1 μM; MPA and selected amide derivatives) or without their addition. Cell proliferation was assessed using […]
Statistical analysis was conducted using GraphPad Prism 9 (GraphPad Software Inc).
Differences between MMF, MPA and its new derivatives were assessed using a two-tailed unpaired Student’s t-test, with statistical significance defined as p < 0.05. EC50 and IC50 values were determined by fitting data to a four-parameter non-linear regression model in GraphPad Prism 9. Statistical significance was evaluated using the t-test.

Structure (SMILES) | IC50 [1] | Inhibition of PBMC proliferation ([2]; 50 µM compound, without GMP, 72 h) | PBMC proliferation upon GMP addition (reversal of inhibition) ([2]; 50 µM compound, 72 h) | Inhibition of PBMC proliferation ([2]; 50 µM) | inhibition at 50 µM ([2]; Homo sapiens, PBMC, 50 µM compound, without GMP, 72 h)
COc1c(C)c2c(c(O)c1C/C=C(\C)CCC(=O)OCCN1CCOCC1)C(=O)OC2 [MMF, mycophenolate mofetil, reference compound] | 2.03 ± 0.042 µM | near-complete inhibition |  |  | 
C/C=C/c1ccc(OC(=O)CC/C(C)=C/Cc2c(O)c3c(c(C)c2OC)COC3=O)c(OC)c1 [MP9] | 3.81 µM |  | comparable pattern |  | 
COc1c(C)c2c(c(O)c1C/C=C(\C)CCC(=O)O)C(=O)OC2 [MPA, Mycophenolic acid] | 1.74 ± 0.259 µM |  |  | near-complete inhibition | 
COc1c(C)c2c(c(O)c1C/C=C(\C)CCC(=O)Oc1ccc3c(c1)OCO3)C(=O)OC2 [P1] |  |  | reversed |  | ~80%
COC(=O)/C=C/c1ccccc1OC(=O)CC/C(C)=C/Cc1c(O)c2c(c(C)c1OC)COC2=O [P4] | 2.87 µM |  | comparable pattern |  | 
COc1c(C)c2c(c(O)c1C/C=C(\C)CCC(=O)Oc1ccc(CCC(C)=O)cc1)C(=O)OC2 [P7] | 2.45 µM |  | comparable pattern |  | 
